Laboratory results published in the NIST ThermoML archive (doi:10.1016/j.jct.2007.05.010).

How the values were obtained:
[1] = mn = molality of the nth substance listed, in mol/kg; settings: 298.15 K, 101 kPa, Liquid; for speed of sound: Sing-around technique in a fixed-path interferometer
[2] = 298.15 K, 101 kPa, Liquid; for speed of sound: Sing-around technique in a fixed-path interferometer

CC1COC(=O)O1 (stereo not given) [4-methyl-1,3-dioxolan-2-one] + O
[1]
Settings | mass density [kg/m3] | speed of sound [m/s]
m2 = 0 | 1198.64 | 1443.4
m2 = 0.2538 | 1197.46 | 1444.9
m2 = 0.2969 | 1197.24 | 1445.2
m2 = 0.3438 | 1196.97 | 1445.4
m2 = 0.3895 | 1196.74 | 1445.6
m2 = 0.4879 | 1196.22 | 1446
m2 = 0.5765 | 1195.77 | 1446.6
m2 = 0.6743 | 1195.27 | 1447.2
m2 = 0.7678 | 1194.8 | 1447.6

CC1COC(=O)O1 (stereo not given) [4-methyl-1,3-dioxolan-2-one]
[2]
Settings | mass density [kg/m3] | speed of sound [m/s]
– | 1198.64 | 1443.4

OCCO [1,2-ethanediol]
[2]
Settings | mass density [kg/m3] | speed of sound [m/s]
– | 1109.41 | 1656.1

OCCO [1,2-ethanediol] + O
[1]
Settings | mass density [kg/m3] | speed of sound [m/s]
m2 = 0 | 1109.41 | 1656.1
m2 = 0.1028 | 1109.35 | 1656.9
m2 = 0.2175 | 1109.25 | 1657.7
m2 = 0.3155 | 1109.22 | 1658.6
m2 = 0.3759 | 1109.06 | 1658.7
m2 = 0.7031 | 1108.82 | 1660.5
m2 = 0.808 | 1108.62 | 1661.4
m2 = 0.9282 | 1108.2 | 1661.8
m2 = 1.035 | 1108.14 | 1662.3
m2 = 1.132 | 1108.1 | 1662.7

CC(O)CO (stereo not given) [1,2-propanediol]
[2]
Settings | mass density [kg/m3] | speed of sound [m/s]
– | 1032.87 | 1510.6

CC(O)CO (stereo not given) [1,2-propanediol] + O
[1]
Settings | mass density [kg/m3] | speed of sound [m/s]
m2 = 0 | 1032.87 | 1510.6
m2 = 0.2187 | 1033.12 | 1512.9
m2 = 0.5592 | 1033.53 | 1516.4
m2 = 0.6141 | 1033.58 | 1516.5
m2 = 0.7341 | 1033.67 | 1517.5
m2 = 0.8421 | 1033.73 | 1519.4
m2 = 0.9215 | 1033.86 | 1519.9
m2 = 1.023 | 1033.94 | 1521.5
